We go through 25 compounds from patent US20090029992A1, “SUBSTITUTED PYRAZOLE COMPOUNDS” (priority 2007, published 2009).

Some results are limits rather than exact numbers.

One experiment deals with HCT116 cells. Kind of experiment: Whole cell cytotoxicity assay, Sulforhodamine B. The experiment is classed as cell-based. As to conditions: Homo sapiens, HCT-116, HCT116, 96 hours incubation, SRB; for GI50: read-out: GI50 HCT116 cell growth; for IC50: read-out: IC50 values in this assay (HCT116 cell growth). Summed up:
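HCT116 cells (500/well) in DMEM/10% FBS/2 mM glutamine were preincubated 24 h, then exposed to compound for 96 h at 37 °C, 5% CO2, in duplicate. Cells were fixed with TCA and stained with sulforhodamine B (A570). GI50, TGI and LC50 were derived relative to a time-zero plate and an untreated control.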

The target in experiment [1] is T1, N-terminal His6-tagged recombinant human KDR, residues 790-end (Homo sapiens, UniProt P35968).
T1 construct: recombinant human KDR, residues 790-end; His6 (N); purchased Upstate USA Inc, 706 Forest Street, Charlottesville, Va
Kind of experiment: KDR kinase inhibition assay (33P-ATP filter assay). The format is biochemical. In outline: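 His6-tagged human KDR (residues 790-end, 5-10 mU) with 0.33 mg/mL myelin basic protein in 8 mM MOPS pH 7.0, 0.2 mM EDTA, 10 mM magnesium acetate and [γ-33P]ATP; 40 min at room temperature. Stopped with phosphoric acid, filter-bound 33P counted; inhibition relative to no-inhibitor controls.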

Experiment [2] has as its target T2, N-terminal His-tagged human Src (Homo sapiens, UniProt P12931).
T2 construct: His (N); purchased Upstate USA Inc, 706 Forest Street, Charlottesville, Va
Description: Src kinase inhibition assay (33P-ATP filter assay). The experiment is classed as biochemical.

Setting [3] is: group with IC50 greater than 100 nM.

T1 sequence (P35968 790-1356 limits assumed): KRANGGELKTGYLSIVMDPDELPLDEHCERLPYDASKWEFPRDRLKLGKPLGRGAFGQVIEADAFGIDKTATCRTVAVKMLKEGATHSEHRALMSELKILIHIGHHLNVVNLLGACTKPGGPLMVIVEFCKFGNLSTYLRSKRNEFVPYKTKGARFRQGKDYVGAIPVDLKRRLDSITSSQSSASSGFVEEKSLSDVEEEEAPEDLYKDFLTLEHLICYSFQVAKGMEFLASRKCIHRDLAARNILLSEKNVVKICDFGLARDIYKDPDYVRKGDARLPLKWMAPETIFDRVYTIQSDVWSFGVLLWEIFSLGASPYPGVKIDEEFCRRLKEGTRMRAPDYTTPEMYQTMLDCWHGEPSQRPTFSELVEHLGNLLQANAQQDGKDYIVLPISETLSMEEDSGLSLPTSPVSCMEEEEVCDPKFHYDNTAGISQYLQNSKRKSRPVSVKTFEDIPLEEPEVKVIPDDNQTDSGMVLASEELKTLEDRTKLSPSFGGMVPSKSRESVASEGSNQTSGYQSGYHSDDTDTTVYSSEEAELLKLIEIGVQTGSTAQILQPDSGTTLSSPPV
T2 sequence (P12931 whole entry): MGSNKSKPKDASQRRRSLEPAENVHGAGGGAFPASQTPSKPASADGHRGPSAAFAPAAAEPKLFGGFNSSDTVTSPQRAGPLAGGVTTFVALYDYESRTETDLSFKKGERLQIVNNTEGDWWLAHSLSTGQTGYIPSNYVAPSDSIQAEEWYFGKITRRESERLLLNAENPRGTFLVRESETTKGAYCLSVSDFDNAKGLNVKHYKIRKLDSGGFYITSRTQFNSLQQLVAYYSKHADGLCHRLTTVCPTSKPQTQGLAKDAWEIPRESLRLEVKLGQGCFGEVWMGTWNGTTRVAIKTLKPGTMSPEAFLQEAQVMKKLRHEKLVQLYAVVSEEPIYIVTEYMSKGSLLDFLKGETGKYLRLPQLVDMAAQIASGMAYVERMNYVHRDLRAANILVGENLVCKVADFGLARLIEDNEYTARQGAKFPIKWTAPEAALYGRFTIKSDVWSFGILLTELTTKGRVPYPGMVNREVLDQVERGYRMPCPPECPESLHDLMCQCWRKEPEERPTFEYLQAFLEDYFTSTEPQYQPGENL

As for `COCCN(C)c1cc(Nc2cc(C)[nH]n2)nc(-c2cccc(OC)c2)n1` [Compound 68, N^4-(2-methoxyethyl)-2-(3-methoxyphenyl)-N^4-methyl-N^6-(5-methyl-1H-pyrazol-3-yl)pyrimidine-4,6-diamine], the 50% growth inhibitory concentration (GI50) with HCT116 cells is ≤ 1000 nM. Also, the IC50 in experiment [1] (setting [3]) and in experiment [2] (setting [3]) was ≤ 1000 nM throughout.
As for `Cc1cc(Nc2cc(N(C)CCN(C)C)nc(-c3ccc4ccccc4c3)n2)n[nH]1` [Example 142, N^4-(2-(dimethylamino)ethyl)-N^4-methyl-N^6-(5-methyl-1H-pyrazol-3-yl)-2-(naphthalen-2-yl)pyrimidine-4,6-diamine], the GI50 in the experiment on HCT116 cells was ≤ 1000 nM. Besides, the values for the IC50 in experiment [1] (setting [3]) and in experiment [2] (40 minutes at room temperature) were ≤ 1000 nM and ≤ 100 nM, respectively.
On to `COCCN(C)c1cc(Nc2cc(C)[nH]n2)nc(-c2ccccc2Cl)n1` [Compound 63], for which the values for the IC50 (in the experiment on HCT116 cells; in experiment [1] (setting [3]); in experiment [2] (setting [3])) were 1000 to 10000 nM, ≤ 1000 nM and ≤ 1000 nM, respectively.
Turning to `Cc1cc(Nc2cc(NC3CCOCC3)nc(-c3ccccc3C(F)(F)F)n2)n[nH]1` [Compound 81, N^4-(5-methyl-1H-pyrazol-3-yl)-N^6-(tetrahydro-2H-pyran-4-yl)-2-(2-(trifluoromethyl)phenyl)pyrimidine-4,6-diamine], the figures for the IC50 (with HCT116 cells; in experiment [1] (setting [3]); in experiment [2] (setting [3])) were 1000 to 10000 nM, ≤ 1000 nM and ≤ 1000 nM, respectively.
As for `COCCN(C)c1cc(Nc2cc(C)[nH]n2)nc(-c2ccc(OC)cc2)n1` [Compound 67, N^4-(2-methoxyethyl)-2-(4-methoxyphenyl)-N^4-methyl-N^6-(5-methyl-1H-pyrazol-3-yl)pyrimidine-4,6-diamine], the IC50 in the experiment with HCT116 cells was 1000 to 10000 nM; in experiment [1] (setting [3]), ≤ 1000 nM; in experiment [2] (setting [3]), ≤ 1000 nM.
Take `Cc1cc(Nc2cc(N3CCN(C)CC3)nc(-c3ccccc3C(F)(F)F)n2)n[nH]1` [Compound 102, N-(5-methyl-1H-pyrazol-3-yl)-6-(4-methylpiperazin-1-yl)-2-(2-(trifluoromethyl)phenyl)pyrimidin-4-amine]: the IC50 with HCT116 cells was 1000 to 10000 nM; in experiment [1] (40 minutes at room temperature) it was ≤ 100 nM; in experiment [2] (setting [3]) it was ≤ 1000 nM.
As for `Cc1cc(Nc2cc(NC3CCOCC3)nc(-c3cccc(C(F)(F)F)c3)n2)n[nH]1` [Compound 80, N^4-(5-methyl-1H-pyrazol-3-yl)-N^6-(tetrahydro-2H-pyran-4-yl)-2-(3-(trifluoromethyl)phenyl)pyrimidine-4,6-diamine], the figures for the IC50 (in the experiment with HCT116 cells; in experiment [1] (setting [3]); in experiment [2] (setting [3])) were 1000 to 10000 nM, ≤ 1000 nM and ≤ 1000 nM, respectively.
With `Cc1cc(Nc2cc(N(C)CCN(C)C)nc(-c3cccc(C(F)(F)F)c3)n2)n[nH]1` [Compound 113, N^4-(2-(dimethylamino)ethyl)-N^4-methyl-N^6-(5-methyl-1H-pyrazol-3-yl)-2-(3-(trifluoromethyl)phenyl)pyrimidine-4,6-diamine], in the experiment on HCT116 cells, the GI50 is ≤ 1000 nM. For the same compound, the IC50 in experiment [1] (setting [3]) was ≤ 1000 nM; in experiment [2] (40 minutes at room temperature), ≤ 100 nM.
On to `COCCN(C)c1cc(Nc2cc(C)[nH]n2)nc(-c2cccc3c2OCCO3)n1` [Example 150, 2-(2,3-dihydrobenzo[b][1,4]dioxin-5-yl)-N^4-(2-methoxyethyl)-N^4-methyl-N^6-(5-methyl-1H-pyrazol-3-yl)pyrimidine-4,6-diamine], for which the IC50 was 1000 to 10000 nM in the experiment on HCT116 cells and ≤ 1000 nM in experiment [1] (setting [3]).
On to `Cc1cc(Nc2cc(N3CCN(C)CC3)nc(-c3cc(F)cc(Cl)c3)n2)n[nH]1` [Compound 97], for which, in the experiment on HCT116 cells, the GI50 was ≤ 1000 nM. For the same compound, the IC50 in experiment [1] (setting [3]) and in experiment [2] (setting [3]) was ≤ 1000 nM in each case.
As to `Cc1cc(Nc2cc(N(C)CCN(C)C)nc(-c3ccc4c(c3)OCO4)n2)n[nH]1` [Example 146, 2-(benzo[d][1,3]dioxol-5-yl)-N^4-(2-(dimethylamino)ethyl)-N^4-methyl-N^6-(5-methyl-1H-pyrazol-3-yl)pyrimidine-4,6-diamine], in the experiment with HCT116 cells, the GI50 was ≤ 1000 nM. Moreover, the IC50 in experiment [1] (setting [3]) was ≤ 1000 nM; in experiment [2] (40 minutes at room temperature), ≤ 100 nM.
For `COCCN(C)c1cc(Nc2cc(C)[nH]n2)nc(-c2ccccc2C(F)(F)F)n1` [Example 126, N^4-(2-methoxyethyl)-N^4-methyl-N^6-(5-methyl-1H-pyrazol-3-yl)-2-(2-(trifluoromethyl)phenyl)pyrimidine-4,6-diamine], the half-inhibitory concentration (IC50) with HCT116 cells is 1000 to 10000 nM; in experiment [1] (setting [3]), ≤ 1000 nM.
In the case of `Cc1cc(Nc2cc(NC3CCOCC3)nc(-c3ccc(C(F)(F)F)cc3)n2)n[nH]1` [Compound 79, N^4-(5-methyl-1H-pyrazol-3-yl)-N^6-(tetrahydro-2H-pyran-4-yl)-2-(4-(trifluoromethyl)phenyl)pyrimidine-4,6-diamine], the IC50 was 1000 to 10000 nM in the experiment on HCT116 cells and ≤ 1000 nM in experiment [2] (setting [3]).
For the compound `COCCN(C)c1cc(Nc2cc(C)[nH]n2)nc(-c2ccc(N(C)C)cc2)n1` [Compound 118, 2-(4-(dimethylamino)phenyl)-N^4-(2-methoxyethyl)-N^4-methyl-N^6-(5-methyl-1H-pyrazol-3-yl)pyrimidine-4,6-diamine], the IC50 in the experiment on HCT116 cells was 1000 to 10000 nM; in experiment [1] (setting [3]) it was ≤ 1000 nM; in experiment [2] (40 minutes at room temperature), ≤ 100 nM.
Take `Cc1cc(Nc2cc(NC3CCOCC3)nc(-c3ccc(C(C)(C)C)cc3)n2)n[nH]1` [Compound 70, 2-(4-tert-butylphenyl)-N^4-(5-methyl-1H-pyrazol-3-yl)-N^6-(tetrahydro-2H-pyran-4-yl)pyrimidine-4,6-diamine]: the IC50 with HCT116 cells is 1000 to 10000 nM; in experiment [1] (setting [3]), ≤ 1000 nM; in experiment [2] (setting [3]), ≤ 1000 nM.
Take `COCCN(C)c1cc(Nc2cc(C)[nH]n2)nc(-c2cccc(C)c2)n1` [Compound 65, N^4-(2-methoxyethyl)-N^4-methyl-N^6-(5-methyl-1H-pyrazol-3-yl)-2-m-tolylpyrimidine-4,6-diamine]: the IC50 in the experiment on HCT116 cells is 1000 to 10000 nM; in experiment [1] (setting [3]), ≤ 1000 nM; in experiment [2] (setting [3]), ≤ 1000 nM.
On to `Cc1cc(Nc2cc(N3CCN(C)CC3)nc(-c3ccc(-c4ccccc4)cc3)n2)n[nH]1` [Example 157, 2-(biphenyl-4-yl)-N-(5-methyl-1H-pyrazol-3-yl)-6-(4-methylpiperazin-1-yl)pyrimidin-4-amine], for which the GI50 in the experiment with HCT116 cells was ≤ 1000 nM. The IC50 was ≤ 1000 nM in experiment [1] (setting [3]) and ≤ 100 nM in experiment [2] (40 minutes at room temperature).
As to `Cc1cc(Nc2cc(NC3CCOCC3)nc(-c3cccc4ccccc34)n2)n[nH]1` [Example 127, N^4-(5-methyl-1H-pyrazol-3-yl)-2-(naphthalen-1-yl)-N^6-(tetrahydro-2H-pyran-4-yl)pyrimidine-4,6-diamine], the IC50 in the experiment on HCT116 cells is 1000 to 10000 nM; in experiment [1] (setting [3]), ≤ 1000 nM; in experiment [2] (setting [3]) it was ≤ 1000 nM.
As to `COCCN(C)c1cc(Nc2cc(C)[nH]n2)nc(-c2ccc3ccccc3c2)n1` [Example 149, N^4-(2-methoxyethyl)-N^4-methyl-N^6-(5-methyl-1H-pyrazol-3-yl)-2-(naphthalen-2-yl)pyrimidine-4,6-diamine], the IC50 in the experiment with HCT116 cells was 1000 to 10000 nM; in experiment [1] (setting [3]), ≤ 1000 nM; in experiment [2] (setting [3]), ≤ 1000 nM.
`COCCN(C)c1cc(Nc2cc(C)[nH]n2)nc(-c2cccc(C(F)(F)F)c2)n1` [Compound 125, N^4-(2-methoxyethyl)-N^4-methyl-N^6-(5-methyl-1H-pyrazol-3-yl)-2-(3-(trifluoromethyl)phenyl)pyrimidine-4,6-diamine]: the IC50 was 1000 to 10000 nM in the experiment on HCT116 cells, ≤ 1000 nM in experiment [1] (setting [3]) and ≤ 1000 nM in experiment [2] (setting [3]).
For the compound `COCCN(C)c1cc(Nc2cc(C)[nH]n2)nc(-c2cccc3ccccc23)n1` [Example 148, N^4-(2-methoxyethyl)-N^4-methyl-N^6-(5-methyl-1H-pyrazol-3-yl)-2-(naphthalen-1-yl)pyrimidine-4,6-diamine], the IC50 in the experiment on HCT116 cells is 1000 to 10000 nM; in experiment [1] (setting [3]), ≤ 1000 nM; in experiment [2] (setting [3]) it was ≤ 1000 nM.
As to `Cc1cc(Nc2cc(N3CCN(C)CC3)nc(-c3ccc(C(F)(F)F)cc3)n2)n[nH]1` [Compound 100], the IC50 in the experiment on HCT116 cells was 1000 to 10000 nM; in experiment [2] (setting [3]), ≤ 1000 nM.
For the compound `Cc1cc(Nc2cc(N(C)CCN(C)C)nc(-c3cccc(N(C)C)c3)n2)n[nH]1` [Compound 107], the IC50 in the experiment with HCT116 cells was 1000 to 10000 nM; in experiment [1] (40 minutes at room temperature) it was ≤ 100 nM; in experiment [2] (40 minutes at room temperature), ≤ 100 nM.
Regarding `Cc1cc(Nc2cc(N3CCN(C)CC3)nc(-c3cccc4c3OCCO4)n2)n[nH]1` [Example 136, 2-(2,3-dihydrobenzo[b][1,4]dioxin-5-yl)-N-(5-methyl-1H-pyrazol-3-yl)-6-(4-methylpiperazin-1-yl)pyrimidin-4-amine], the IC50 is 1000 to 10000 nM in the experiment on HCT116 cells, ≤ 1000 nM in experiment [1] (setting [3]) and ≤ 1000 nM in experiment [2] (setting [3]).
On to `Cc1cc(Nc2cc(N(C)CCN(C)C)nc(-c3ccc(C(C)(C)C)cc3)n2)n[nH]1` [Compound 103, 2-(4-tert-butylphenyl)-N^4-(2-(dimethylamino)ethyl)-N^4-methyl-N^6-(5-methyl-1H-pyrazol-3-yl)pyrimidine-4,6-diamine], for which, in the experiment on HCT116 cells, the GI50 is ≤ 1000 nM. For the same compound, the IC50 in experiment [1] (setting [3]) was ≤ 1000 nM; in experiment [2] (40 minutes at room temperature), ≤ 100 nM.

As usually defined, the GI50 is the concentration at which growth is held to half of that of the control. In general, IC50 refers to the concentration at which inhibition is half-maximal.
